These results are taken from ChEMBL document CHEMBL5042483, “Discovery and Mechanism of SARS-CoV-2 Main Protease Inhibitors” (J Med Chem, 2022).

Experiment [1] deals with SARS-CoV-2. The experiment is described as follows: Antiviral activity against SARS-CoV-2 USA_WA1/2020 infected in human iPSC derived lung organoids assessed as reduction in viral RNA in cell supernatant at 5 uM pretreated for 2 hrs with compound followed by viral infection for 2 hrs then followed by washout and replacement with fresh medium and measured after 72 hrs by qRT-PCR analysis relative to control. Format: functional, organism-based. The note with it: Severe acute respiratory syndrome coronavirus 2, time 76.0 hrs. A general note: Real-time PCR tracks product formation cycle by cycle.

Experiment [2] concerns SARS-CoV-2. The experiment is described as follows: Antiviral activity against SARS-CoV-2 USA_WA1/2020 infected in human iPSC derived lung organoids assessed as reduction in viral RNA in intracellular fraction at 5 uM pretreated for 2 hrs with compound followed by viral infection for 2 hrs then followed by washout and replacement with fresh medium and measured after 72 hrs by qRT-PCR analysis relative to control. The note with it: Severe acute respiratory syndrome coronavirus 2, time 76.0 hrs. The class given is functional, organism-based.

The source made the active and inactive calls. The calls are words filed in the database; no cut-off is given here.

`O=c1c2ccccc2[se]n1-c1cccc(C(F)(F)F)c1`: the result in experiment [1] and in experiment [2] was Active.
